Among the test systems are 786-0; OVCAR-3; RXF 393; SK-OV-3; SF-539; OVCAR-5; OVCAR-4; Malme-3M; HOP-62; EKVX; SF-268; A498; M14; HCT-15; SF-295; PC-3; DU-145; T47D; NCI/ADR-RES.
What all share (assay): DTP human tumour cell line panel, 48 h

The values below come from ChEMBL document CHEMBL1201862, “PubChem BioAssay data set” (2004).

SMILES strings stand for the structures.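 Test compounds were applied to cells in 96-well plates for 48 hours at 5 doses. At the GI50, growth is halved.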 Activity calls are given as the source filed them. Cut-off read from the data, not from the text of the source: active = GI50 up to about 1.1 µM and inactive = higher.

What is called GI50 is the concentration at which growth is held to half of that of the control. With `CCC(Oc1ccc(OC)c2ccccc(=O)c12)C(=O)O` (stereo not given), the GI50 with 786-0, with OVCAR-3, in the experiment with RXF 393, in the experiment with SK-OV-3, in the experiment on SF-539 and in the experiment on OVCAR-5 was > 100 µM (inactive) throughout. Moreover, the GI50 with OVCAR-4, with Malme-3M, in the experiment with HOP-62, with EKVX, in the experiment on SF-268 and with A498 was > 100 µM (inactive) throughout. The GI50 in the experiment with M14 is > 100 µM (inactive); in the experiment on HCT-15, above 100 µM; in the experiment with SF-295, > 100 µM (inactive).
For `O=C1Nc2ccccc2C1(O)C/C(=N/O)c1ccc2ccccc2c1` (stereo not given), the GI50 in the experiment on 786-0 is > 100 µM (inactive); with OVCAR-3 it was > 100 µM (inactive); in the experiment with RXF 393, 58.9 µM (inactive); in the experiment on SK-OV-3, 49.1 µM (inactive); with SF-539, > 100 µM (inactive); in the experiment with OVCAR-5 it was > 100 µM (inactive). In addition, the GI50 in the experiment with OVCAR-4, in the experiment with Malme-3M, in the experiment on HOP-62, with EKVX, in the experiment on SF-268 and with A498 was > 100 µM (inactive) in each case. Also, the values for the GI50 in the experiment on M14, with HCT-15 and in the experiment with SF-295 were > 100 µM (inactive), above 100 µM and > 100 µM (inactive), respectively.
`O=C1CSC2=NC3=C(CSC/C3=C\c3ccc(Cl)cc3)C(c3ccc(Cl)cc3)N12` (stereo not given): the GI50 in the experiment with 786-0 is > 10 µM (inactive); in the experiment with OVCAR-3 it was 15.5 µM (inactive); with PC-3, 5.22 µM (inactive); in the experiment with SK-OV-3, 52.7 µM (inactive); in the experiment on OVCAR-5 it was 61.2 µM (inactive); in the experiment on OVCAR-4, 4.46 µM (inactive). Further, the GI50 was 40.6 µM (inactive) in the experiment on Malme-3M; 27.4 µM (inactive) with EKVX; 41.2 µM (inactive) with SF-268; 28.4 µM (inactive) in the experiment on DU-145; 32.5 µM (inactive) in the experiment with T47D; 24.4 µM (inactive) with NCI/ADR-RES. Besides, the GI50 was 19.1 µM (inactive) with M14, 15.8 µM in the experiment on HCT-15 and 12.1 µM (inactive) in the experiment with SF-295.
`Cc1cc2c(c(C(N)=O)c1C)-c1ccccc1C2=O`: the GI50 in the experiment with 786-0, in the experiment on OVCAR-3, in the experiment on RXF 393, with SK-OV-3, in the experiment on SF-539 and in the experiment with OVCAR-5 was > 100 µM (inactive) throughout. Besides, the GI50 in the experiment on OVCAR-4 was > 100 µM (inactive); in the experiment on Malme-3M it was > 100 µM (inactive); with HOP-62 it was > 100 µM (inactive); with EKVX, > 100 µM (inactive); in the experiment on SF-268, > 100 µM (inactive); with A498, 51.4 µM (inactive). Moreover, the GI50 is > 100 µM (inactive) with M14, above 100 µM in the experiment on HCT-15 and > 100 µM (inactive) in the experiment on SF-295.
With `COc1cccc(SSc2cccc(OC)c2C(=O)O)c1C(=O)O`, the GI50 with 786-0, in the experiment on OVCAR-3, in the experiment on RXF 393, in the experiment on SK-OV-3, with SF-539 and with OVCAR-5 was > 100 µM (inactive) each time. The GI50 with OVCAR-4, with Malme-3M, with HOP-62, in the experiment on EKVX, in the experiment on SF-268 and with A498 was > 100 µM (inactive) in each case. Besides, the GI50 with M14 is > 100 µM (inactive); in the experiment on HCT-15, above 100 µM; in the experiment on SF-295 it was > 100 µM (inactive).
For `COc1ccc(OCC(=O)O)c(C(=O)CCC(=O)O)c1`, the GI50 with 786-0 was > 100 µM (inactive); in the experiment on OVCAR-3 it was > 10 µM (inactive); in the experiment with RXF 393 it was > 100 µM (inactive); in the experiment with SK-OV-3, > 100 µM (inactive); in the experiment on SF-539, > 100 µM (inactive); in the experiment on OVCAR-5, > 100 µM (inactive). The GI50 in the experiment on OVCAR-4 is > 100 µM (inactive); in the experiment on Malme-3M, > 100 µM (inactive); in the experiment on HOP-62, > 10 µM (inactive); in the experiment with EKVX, > 100 µM (inactive); with SF-268, > 100 µM (inactive); with A498, > 100 µM (inactive). For the same compound, the GI50 is > 10 µM (inactive) in the experiment on M14, above 100 µM with HCT-15 and > 100 µM (inactive) with SF-295.
As for `Cc1ccc(C(=O)/C=C/c2ccccc2O)c(C)c1`, the GI50 in the experiment with 786-0, in the experiment with OVCAR-3, in the experiment with RXF 393, with SK-OV-3, in the experiment with SF-539 and with OVCAR-5 was > 100 µM (inactive) each time. The GI50 in the experiment with OVCAR-4 is > 100 µM (inactive); in the experiment on Malme-3M it was > 100 µM (inactive); in the experiment on HOP-62, > 100 µM (inactive); in the experiment on EKVX, > 100 µM (inactive); in the experiment on SF-268, 93.3 µM (inactive); in the experiment on A498, > 100 µM (inactive). Also, the GI50 with M14 was > 100 µM (inactive); in the experiment with HCT-15 it was above 100 µM; with SF-295, > 100 µM (inactive).
Turning to `O=CN/C=C/c1cc(O)ccc1O` [ERBSTATIN], the GI50 with 786-0 was 14 µM (inactive); with OVCAR-3, 9.35 µM (inactive); with RXF 393, 13 µM (inactive); with PC-3, > 100 µM (inactive); with SK-OV-3 it was > 62.4 µM (inactive); in the experiment on SF-539, 22.7 µM (inactive). In addition, the GI50 in the experiment on OVCAR-5 is > 85.7 µM (inactive); in the experiment on OVCAR-4 it was 17.8 µM (inactive); with Malme-3M, 17.9 µM (inactive); in the experiment on HOP-62 it was > 74.1 µM (inactive); with EKVX, 18.6 µM (inactive); with SF-268, 17.2 µM (inactive). Moreover, the GI50 is 59.7 µM (inactive) in the experiment with A498; 30.1 µM (inactive) with DU-145; 18.1 µM (inactive) in the experiment with NCI/ADR-RES; 14.9 µM (inactive) in the experiment on M14; 13.3 µM in the experiment on HCT-15; 58.1 µM (inactive) in the experiment with SF-295.
In the case of `CCOC(=O)C(C)(NC(=O)c1ccc(NCc2ccc3nc(NC(=O)c4ccccc4)nc(NC(=O)c4ccccc4)c3c2)cc1)C(=O)OCC`, the GI50 in the experiment on 786-0 was 3.19 µM (inactive); in the experiment with OVCAR-3, 5.64 µM (inactive); in the experiment with RXF 393, 2.39 µM (inactive); with SK-OV-3, 12.5 µM (inactive); with SF-539, 3.51 µM (inactive); in the experiment with OVCAR-5 it was > 100 µM (inactive). Further, the GI50 in the experiment on OVCAR-4 was 2.09 µM (inactive); in the experiment on Malme-3M it was 15 µM (inactive); in the experiment on HOP-62 it was 16.6 µM (inactive); in the experiment on EKVX it was 19 µM (inactive); with SF-268, 8.99 µM (inactive); with A498 it was 9.35 µM (inactive). In addition, the GI50 in the experiment with M14 is 13 µM (inactive); in the experiment with HCT-15, 24.4 µM; in the experiment on SF-295, 6.79 µM (inactive).
Take `COC(=O)C(=O)C(C(=O)OC)C(=O)C(=O)Nc1c(C)cccc1C` (stereo not given): the GI50 in the experiment on 786-0, in the experiment with OVCAR-3, in the experiment on RXF 393, in the experiment with SK-OV-3, in the experiment with SF-539 and in the experiment on OVCAR-5 was > 100 µM (inactive) each time. The GI50 in the experiment with OVCAR-4, in the experiment with Malme-3M, in the experiment with HOP-62, in the experiment with EKVX, in the experiment on SF-268 and in the experiment on A498 was > 100 µM (inactive) in each case. For the same compound, the GI50 was > 100 µM (inactive) with M14, above 100 µM in the experiment on HCT-15 and > 100 µM (inactive) with SF-295.
In the case of `NCCCC(N)(C(=O)O)C(F)F` (stereo not given) [EFLORNITHINE], the GI50 in the experiment with 786-0 is > 100 µM (inactive); in the experiment with OVCAR-3, > 3940 µM (inactive); with RXF 393 it was > 5000 µM (inactive); in the experiment with SK-OV-3, > 5000 µM (inactive); in the experiment with SF-539 it was > 5000 µM (inactive); in the experiment on OVCAR-4, > 5000 µM (inactive). For the same compound, the GI50 is > 5000 µM (inactive) with Malme-3M; > 5000 µM (inactive) in the experiment on HOP-62; > 5000 µM (inactive) with SF-268; > 5000 µM (inactive) in the experiment with A498; > 5000 µM (inactive) in the experiment on NCI/ADR-RES; > 100 µM (inactive) with M14. The values for the concentration for 50% growth inhibition (GI50) with HCT-15 and in the experiment with SF-295 were 769 µM and 2270 µM (inactive), respectively.
On to `Cc1cc(NC(=O)C2C3C=CC(O3)C2C(=O)O)no1` (stereo not given), for which the GI50 in the experiment with 786-0 was 17.4 µM (inactive); in the experiment with OVCAR-3, > 100 µM (inactive); with RXF 393, 16.4 µM (inactive); with SK-OV-3, > 100 µM (inactive); with SF-539, 24 µM (inactive); with OVCAR-5, > 100 µM (inactive). Moreover, the GI50 is 88.1 µM (inactive) in the experiment on OVCAR-4; > 100 µM (inactive) with Malme-3M; > 100 µM (inactive) in the experiment on HOP-62; > 100 µM (inactive) with EKVX; 24.3 µM (inactive) in the experiment with SF-268; 48 µM (inactive) with A498. Besides, the GI50 with M14 is > 100 µM (inactive); in the experiment on HCT-15, 18.5 µM; with SF-295, > 100 µM (inactive).
`CCN(CC)CCN1C(=O)CC2[C@@H]3CCc4cc(OC)ccc4C3CC[C@]2(C)C1=O` (stereo not given in full): the GI50 is 17.3 µM (inactive) with 786-0; 56.8 µM (inactive) with OVCAR-3; 30.5 µM (inactive) in the experiment with RXF 393; > 100 µM (inactive) in the experiment with SK-OV-3; 0.0134 µM (active) with SF-539; 32.5 µM (inactive) with OVCAR-5. Further, the GI50 with OVCAR-4 was > 100 µM (inactive); with Malme-3M, 18.5 µM (inactive); with HOP-62, 25.2 µM (inactive); in the experiment on SF-268, 38.5 µM (inactive); with A498, 36 µM (inactive); with M14, 17.7 µM (inactive). Also, the GI50 with SF-295 was 18.4 µM (inactive).
